Source: patent publication US20240207236A1, “COMPOUND FOR PREVENTING OR TREATING DIABETES” (ONCOCROSS CO., LTD., priority 2021, published 2024)

How the values were obtained:
[1] = system: animal model of insulin-resistant diabetes; assay: Blood sugar, tail vein blood, blood sugar meter, 4 h fasting; format: in vivo, mice (C57BL/6); parameters: blood sugar, Mean: unit not given here
Method: (§1) STZ (Sigma-aldrich, S0130, 40 mg/kg b.w., in 0.1 M citrate buffer pH 4.5) was intraperitoneally administered to 9-week-old male mice (C57BL/6) once/1 day for 5 days to perform a first disease induction. After 7 weeks of the first induction, a second induction was performed using the same method as the first induction. For 5 days of an STZ administration period for the first induction, 10% sucrose was administered as drinking water. In addition, after 14 days of the second administration, blood sugar was confirmed to confirm the induction rate, and the induced animals were separated into groups. Experimental substances (R)-4-{(R)-1-[7-(3,4,5-trimethoxy-phenyl)-[1,6] naphthyridine-5-yloxy]-ethyl}pyrrolidine-2-one (BI-1002494) and cromolyn (OC-101) were administered orally into the stomach at 10 mL/kg using an oral administration syringe (sonde) before 16:00 daily for 12 weeks at a frequency of 7 days/week at doses shown in Table 1 below, respectively, and dexamethasone was orally administered as a positive control substance.
Before disease induction, excluding week 9 of administration of experimental substances to mice in each group of Example 1 above, after 2 weeks after the first induction (based on a first administration date), and after 6 weeks and 2 weeks of the second induction (based on the first administration date), blood was collected from the tail vein and blood sugar was measured using a blood sugar meter (Accu-Check, Roche), and fasting was performed for 4 hours from 9:30 a.m. to 1:30 p.m.

[2] = system: animal model of insulin-resistant diabetes; assay: Histopathological change of liver, kidney and pancreas (H&E); format: in vivo, mice (C57BL/6); details: for Kidney Medullar apoptosis / Kidney Medullar mineralization / Kidney NHL / Kidney bowman's capsule hyperplasia / Kidney pappillary mineralization / Liver Apoptosis / Liver Cytoplasmic glycogen / Liver Eosinophlic focus of cellular alteration / Liver Mononuclear cell infiltrate / Liver NHL / Pancrease Apoptosis / Pancrease NHL / Pancrease islet degeneration / Pancrease islet hypertrophy / Pancrease islet, mononuclear cell infillitrate: count in group of 10 animals
Method: as §1
At the end of the observation period, the mice in each group of Example 1 were confirmed to be dead, and the liver, kidney, and pancreas were extracted and fixed with 10% neutral buffered formalin (NBF) in at least 20 times the tissue volume. The fixed tissue was sectioned to a thickness of approximately 4 mm and then produced into a paraffin block through general tissue processing and embedding processes. Thereafter, the tissue was sectioned to a thickness of 4 μm using a rotary microtome, and then H&E staining was performed, and histopathological changes were observed.

[3] = administered groups 12.5-50 mg/kg, Table 8 and FIG. 2

## COc1cc(-c2cc3ncccc3c(O[C@H](C)[C@H]3CNC(=O)C3)n2)cc(OC)c1OC [BI-1002494, (R)-4-{(R)-1-[7-(3,4,5-trimethoxy-phenyl)-[1,6]naphthyridine-5-yloxy]-ethyl}pyrrolidine-2-one]
[1]; 12.5 mg/kg/day oral, value column 2 of 6, head prints only weeks 0, 4, 8, 10
  blood sugar, Mean: 319.5
[1]; 12.5 mg/kg/day oral, week 0
  blood sugar, Mean: 291.1
[1]; 25 mg/kg/day oral, value column 2 of 6, head prints only weeks 0, 4, 8, 10
  blood sugar, Mean: 310.1
[1]; 25 mg/kg/day oral, week 0
  blood sugar, Mean: 301.2
[1]; 50 mg/kg/day oral, value column 2 of 6, head prints only weeks 0, 4, 8, 10
  blood sugar, Mean: 264.5
[1]; 50 mg/kg/day oral, week 0
  blood sugar, Mean: 303.7
[1]; administered group, dose not specified
  blood sugar compared to the positive control group: decreased significantly
[1]; after induction of diabetic disease, 12.5-50 mg/kg
  blood sugar, summary: decreased in a dose-dependent manner
[2]; 12.5 mg/kg (G4)
  Kidney Medullar apoptosis: 3
  Kidney Medullar mineralization: 0
  Kidney NHL: 7
  Kidney bowman's capsule hyperplasia: 0
  Kidney pappillary mineralization: 0
  Liver Apoptosis: 2
  Liver Cytoplasmic glycogen: 1
  Liver Eosinophlic focus of cellular alteration: 0
  Liver Mononuclear cell infiltrate: 1
  Liver NHL: 7
  Pancrease Apoptosis: 1
  Pancrease NHL: 5
  Pancrease islet degeneration: 2
  Pancrease islet hypertrophy: 1
  Pancrease islet, mononuclear cell infillitrate: 1
[2]; 25 mg/kg (G5)
  Kidney Medullar apoptosis: 2
  Kidney Medullar mineralization: 1
  Kidney NHL: 7
  Kidney bowman's capsule hyperplasia: 0
  Kidney pappillary mineralization: 0
  Liver Apoptosis: 3
  Liver Cytoplasmic glycogen: 0
  Liver Eosinophlic focus of cellular alteration: 0
  Liver Mononuclear cell infiltrate: 2
  Liver NHL: 7
  Pancrease Apoptosis: 0
  Pancrease NHL: 8
  Pancrease islet degeneration: 1
  Pancrease islet hypertrophy: 1
  Pancrease islet, mononuclear cell infillitrate: 0
[2]; 50 mg/kg (G6, G7)
  Kidney Medullar apoptosis: 1
  Kidney Medullar mineralization: 2
  Kidney NHL: 7
  Kidney bowman's capsule hyperplasia: 0
  Kidney pappillary mineralization: 0
  Liver Apoptosis: 2
  Liver Cytoplasmic glycogen: 0
  Liver Eosinophlic focus of cellular alteration: 0
  Liver Mononuclear cell infiltrate: 1
  Liver NHL: 8
  Pancrease Apoptosis: 0
  Pancrease NHL: 7
  Pancrease islet degeneration: 1
  Pancrease islet hypertrophy: 2
  Pancrease islet, mononuclear cell infillitrate: 0
[2]; [3]
  cytoplasmic glycogen in the liver: reduced in the liver
  medullar apoptosis in the kidney: reduced in the kidney in a dose-dependent manner
